Laboratory results published in US9017950B2, “Method for enhancing enzyme assays” (Luminescent MD, LLC, priority 2011, dated 2015).

Key:
Assay type in all cases: biochemical
[1] = target: T1, PSA detection antibody-HRP conjugate (Armoracia rusticana, UniProt P00433); test: Quantification of PSA using PSA detection antibody-HRP conjugate and OD4MI CL detection (CLEIA) in the presence of catalyst
T1 construct: PSA detection antibody (conjugated)
T1 sequence (P00433 31-338 limits assumed): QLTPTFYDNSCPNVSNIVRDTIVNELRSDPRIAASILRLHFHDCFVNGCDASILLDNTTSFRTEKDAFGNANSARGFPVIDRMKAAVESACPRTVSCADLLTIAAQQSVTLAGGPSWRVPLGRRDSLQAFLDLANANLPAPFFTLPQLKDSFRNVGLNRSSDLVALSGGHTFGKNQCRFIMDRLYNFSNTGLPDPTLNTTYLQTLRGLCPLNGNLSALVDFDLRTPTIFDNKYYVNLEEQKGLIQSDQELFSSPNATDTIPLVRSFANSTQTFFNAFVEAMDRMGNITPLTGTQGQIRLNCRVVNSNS
Protocol: (§1) AccuLite® CLIA kit capable of quantifying PSA with luminol CL detection was used to develop new CLEIA method using ODI derivative CL detection. The kit is composed of 96 strip wells coated with monoclonal PSA primary antibody, PSA detection antibody-HRP conjugate, luminol as a substrate, reaction buffer, and washing buffer.
8 different PSA serum samples (0, 0.5, 1, 2, 5, 10, 25, 50 ng/ml), components of AccuLite® CLIA kit, were used as standard samples.
2.0 μM Amplex® Red reagent and 0.2 mM H2O2 in deionized water were prepared as described in Example 1 (A).
0.5 mM 4-Iodophenol was prepared in Tris-HCl buffer solution (pH 8.5).
2.0 mM 4-(1,2,4-triazol-1-yl) phenol was prepared in Tris-HCl buffer solution (pH 8.5).
0.8 ml of aqueous solution containing Amplex® Red reagent (2.0 μM) and H2O2 (0.2 mM) was mixed with 0.2 ml of 4-Iodophenol (or 2.0 mM 4-(1,2,4-triazol-1-yl) phenol).
(§2) OD4MI was formed from the reaction between 5.0 μM TCPO and 10.0 μM 4-Methylimidazole (4MImH) in Ethyl acetate. 100 mM H2O2 was prepared in Isopropyl alcohol.
• 12. Pipette 25 μl of PSA standard or test sample into a strip well. • 13. Add 100 μl of PSA detection antibody-HRP conjugate to the strip well • 14. Swirl the strip wells for 20 seconds. • 15. Incubate for 20 minutes at 37° C. • 16. Discard the contents of each strip wells. • 17. Wash each plate with 300 μl washing buffer. Repeat four additional times. • 18. Add 100 μl working solution containing 2.0 μM Amplex® Red reagent and 0.2 mM H2O2 to each strip well. • 19. Incubate the strip-well containing Amplex® Red reagent, H2O2, and 4-Iodophenol (or 2.0 mM 4-(1,2,4-triazol-1-yl) phenol) for 5.0 minutes at room temperature (21˜23° C.) in the dark. • 20. Pipette 10 μl of working solution into the assigned test tube (12×75 mm). • 21. Insert the test tube into a luminometer or the strip well into a microplate luminometer. • 22. Read (integration time: 0.5 seconds) emitted CL for 0.5 seconds when OD4MI and H2O2 are added into the test tube or strip well through two dispensers.

HRP = target: T2, HRP (Armoracia rusticana, UniProt P00433); test: Enzyme assay with OD4MI CL detection to quantify HRP in the presence of surfactant; conditions: for dynamic range of enzyme assay for quantifying HRP compared with absence of surfactant: surfactant at critical micelle concentration
T2 construct: purchased Sigma
T2 sequence (P00433 31-338 limits assumed): T1 sequence (P00433 31-338 limits assumed)
Protocol: Various concentrations (0.5, 1.0, and 1.5%) of Triton® X surfactant derivatives (Triton® X-100, Triton® X-114, Triton® X-405, and Triton® X-705) were prepared in Tris-HCl buffer solution (pH 8.5).
Various surfactants (e.g., (2-Hydroxypropyl)-β-cyclodetrin, β-cyclodextrin, Carboxymethyl-β-cyclodextrin, Carbomethyl-β-cyclodextrin sodium salt, γ-cyclodextrin, Sodium dodecyl sulfate, Hexadecyltrimethylammonium bromide, Hexadecyltrimethylammonium chloride) of critical micelle concentration (CMC) were prepared in Tris-HCl buffer solution (pH 8.5).
As a substrate for ODI derivative CL detection, 2.0 μM Amplex® Red reagent in deionized water was prepared.
Various concentrations (0˜0.1 U/ml) of HRP containing 2.0 mM H2O2 was prepared in Tris-HCl buffer solution (pH 8.5).
1,1′-Oxalyldi-4-methyl-imidazole (OD4MI), one of ODI derivatives was formed from the reaction between 5.0 μM TCPO, and 10.0 μM 4-Methylimidazole (4MImH) in Ethyl acetate. 100 mM H2O2 was prepared in Isopropyl alcohol.
• 5. Mix and incubate 0.8 ml of Amplex® Red reagent (or deionized water), 0.1 ml of surfactant, one of various surfactants used in this research, and 0.1 ml of HRP containing H2O2 for 10 minutes in a 1.5 ml-centrifuge tube at room temperature. • 6. Pipette 10 μl of working solution into the assigned test tube (12×75 mm) or strip well. • 7. Insert the test tube into a luminometer or the strip well into a microplate luminometer. • 8. Read CL emitted when OD4MI and H2O2 are added into the test tube or strip well through two dispensers.

[2] = target: T3, AFP detection antibody-HRP conjugate (Armoracia rusticana, UniProt P00433); test: Quantification of AFP using AFP detection antibody-HRP conjugate and OD4MI CL detection in the presence of Triton X-100; conditions: 0.1% Triton X-100, OD4MI CL detection, FIG. 6
T3 construct: AFP detection antibody (conjugated)
T3 sequence (P00433 31-338 limits assumed): T1 sequence (P00433 31-338 limits assumed)
Protocol: as §1, with “AFP” for “PSA”, “OD4MI” for “ODI derivative”, “detection in the presence of 0.1% Triton® X-100 surfactant.” for “detection.”
2.0 μM Amplex® Red reagent and 0.2 mM H2O2 in deionized water were prepared in water containing 0.1% Triton® X-100 surfactant.
as §2
• 12. Pipette 25 μl of AFP standard or test sample into a strip well. • 13. Add 100 μl of AFP detection antibody-HRP conjugate to the strip well • 14. Swirl the strip wells for 20 seconds. • 15. Incubate for 30 minutes at 37° C. • 16. Discard the contents of each strip wells. • 17. Wash each plate with 300 μl washing buffer. Repeat four additional times. • 18. Add 100 μl working solution containing 2.0 μM Amplex® Red reagent, 0.2 mM H2O2 and 0.1% Triton® X-100 surfactant in the strip well. • 19. […] Read (integration time: 0.5 seconds) emitted CL for 0.5 seconds when OD4MI and H2O2 are added into the test tube or strip well through two dispensers.

Compound	dynamic range of enzyme assay for quantifying HRP compared with absence of surfactant (HRP; OD4MI CL detection)	other results
Oc1ccc(-n2cncn2)cc1 [4-(1,2,4-triazol-1-yl) phenol]		LOD, times lower than in the absence of catalyst [1]: ~10 times
Oc1ccc(I)cc1 [4-Iodophenol]		LOD, times lower than in the absence of catalyst [1]: about 20 times; LOD, times lower than in the presence of 4-(1,2,4-triazol-1-yl) phenol [1]: about 2 times
CCCCCCCCCCCCCCCC[N+](C)(C)C.[Br-] [Hexadecyltrimethylammonium bromide]	wider than that in the absence of surfactant	
CCCCCCCCCCCCCCCC[N+](C)(C)C.[Cl-] [Hexadecyltrimethylammonium chloride]	wider than that in the absence of surfactant	
CCCCCCCCCCCCOS(=O)(=O)[O-].[Na+] [Sodium dodecyl sulfate]	wider than that in the absence of surfactant	
OC[C@H]1O[C@@H]2O[C@H]3[C@H](O)[C@@H](O)[C@@H](O[C@H]4[C@H](O)[C@@H](O)[C@@H](O[C@H]5[C@H](O)[C@@H](O)[C@@H](O[C@H]6[C@H](O)[C@@H](O)[C@@H](O[C@H]7[C@H](O)[C@@H](O)[C@@H](O[C@H]8[C@H](O)[C@@H](O)[C@@H](O[C@H]1[C@H](O)[C@H]2O)O[C@@H]8CO)O[C@@H]7CO)O[C@@H]6CO)O[C@@H]5CO)O[C@@H]4CO)O[C@@H]3CO [β-cyclodextrin]	wider than that in the absence of surfactant	
OC[C@H]1O[C@@H]2O[C@H]3[C@H](O)[C@@H](O)[C@@H](O[C@H]4[C@H](O)[C@@H](O)[C@@H](O[C@H]5[C@H](O)[C@@H](O)[C@@H](O[C@H]6[C@H](O)[C@@H](O)[C@@H](O[C@H]7[C@H](O)[C@@H](O)[C@@H](O[C@H]8[C@H](O)[C@@H](O)[C@@H](O[C@H]9[C@H](O)[C@@H](O)[C@@H](O[C@H]1[C@H](O)[C@H]2O)O[C@@H]9CO)O[C@@H]8CO)O[C@@H]7CO)O[C@@H]6CO)O[C@@H]5CO)O[C@@H]4CO)O[C@@H]3CO [γ-cyclodextrin]	wider than that in the absence of surfactant	
(2-Hydroxypropyl)-β-cyclodetrin	wider than that in the absence of surfactant	
Carbomethyl-β-cyclodextrin sodium salt	wider than that in the absence of surfactant	
Carboxymethyl-β-cyclodextrin	wider than that in the absence of surfactant	
Triton® X-100		dynamic range to quantify HRP compared with other Triton X derivatives (HRP; 1.0% surfactant, FIG. 5): wider than those in other Triton® X surfactant derivatives; effect on the reaction between Amplex Red reagent and H2O2 in the presence of HRP (HRP; OD4MI CL detection, FIG. 3 to 5): acting to interfere; dynamic range of enzyme assay to quantify HRP, upper end (HRP; higher Triton X-100 concentration, OD4MI CL detection, room temperature, FIG. 3): up to 0.1 U/ml; linear dynamic range for quantification of AFP [2]: 0˜1250 ng/ml
